Source: the supplement of paper PMC10307832

What was measured:
Experiment in all cases: relative viability (nuclei count vs DMSO), 5 days (fraction); higher = more cells survive
[1] = compound: Cn1c(=O)n(-c2ccc(C(C)(C)C#N)cc2)c2c3cc(-c4cnc5ccccc5c4)ccc3ncc21 [Dactolisib] + CC(=O)Nc1cccc(-n2c(=O)n(C3CC3)c(=O)c3c(Nc4ccc(I)cc4F)n(C)c(=O)c(C)c32)c1 [Trametinib] (partner 0.02 µM)
In short: (§1)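 Each reported value is a median over duplicate plates. It expresses relative viability: treated-well nuclei count divided by vehicle-well nuclei count. Lung cancer cell lines in 1536-well plates were dosed by pin tool a day after seeding, alone with one drug or with a fixed anchor-drug dose plus five library-drug doses (not always all listed) in √10 steps, and nuclei were counted after 5 days.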

[2] = compound: Cn1c(=O)n(-c2ccc(C(C)(C)C#N)cc2)c2c3cc(-c4cnc5ccccc5c4)ccc3ncc21 [Dactolisib] + COc1cccc2cc(-c3nc([C@H]4CC[C@H](C(=O)O)CC4)n4ncnc(N)c34)[nH]c12 [OSI-027] (partner 0.5 µM)
In short: as §1

[3] = compound: Cn1c(=O)n(-c2ccc(C(C)(C)C#N)cc2)c2c3cc(-c4cnc5ccccc5c4)ccc3ncc21 [Dactolisib] + C[C@@H](Oc1cc(-c2cnn(C3CCNCC3)c2)cnc1N)c1c(Cl)ccc(F)c1Cl [Crizotinib] (partner 1 µM)
In short: as §1

[4] = compound: C1CCC(CC1)N(CCNCCC2=C3C(=C(C=C2)O)NC(=O)CO3)C(=O)CCNCCC4=CC(=C(C=C4)Cl)Cl [AZ505] + O=C(c1cc(Cc2n[nH]c(=O)c3ccccc23)ccc1F)N1CCN(C(=O)C2CC2)CC1 [Olaparib] (partner 8 µM)
In short: as §1

Cell Line | relative viability ([1]; first compound 0.002 µM) | relative viability ([1]; first compound 0.006325 µM) | relative viability ([1]; first compound 0.02 µM) | relative viability ([1]; first compound 0.06325 µM) | relative viability ([1]; first compound 0.2 µM) | relative viability ([2]; first compound 0.002 µM) | relative viability ([2]; first compound 0.006325 µM) | relative viability ([2]; first compound 0.02 µM) | relative viability ([2]; first compound 0.06325 µM) | relative viability ([2]; first compound 0.2 µM) | relative viability ([3]; first compound 0.002 µM) | relative viability ([3]; first compound 0.006325 µM) | relative viability ([3]; first compound 0.02 µM) | relative viability ([3]; first compound 0.06325 µM) | relative viability ([3]; first compound 0.2 µM) | relative viability ([4]; first compound 0.08 µM) | relative viability ([4]; first compound 0.253 µM) | relative viability ([4]; first compound 0.8 µM) | relative viability ([4]; first compound 2.53 µM) | relative viability ([4]; first compound 8 µM)
NCI-H647 | 0.381 | 0.42 | 0.291 | 0.118 | 0.103 | 0.734 | 0.863 | 0.499 | 0.144 | 0.184 | 1.21 | 0.848 | 0.5 | 0.133 | 0.124 | 0.521 | 0.739 | 0.547 | 0.533 | 0.706
NCI-H2023 | 0.582 | 0.461 | 0.304 | 0.103 | 0.0921 | 0.412 | 0.357 | 0.344 | 0.15 | 0.108 | 0.599 | 0.576 | 0.437 | 0.176 | 0.129 | 0.414 | 0.496 | 0.499 | 0.471 | 0.43
NCI-H520 | 0.61 | 0.585 | 0.354 | 0.147 | 0.102 | 0.285 | 0.303 | 0.308 | 0.204 | 0.189 | 0.813 | 0.658 | 0.539 | 0.207 | 0.174 | 0.288 | 0.279 | 0.367 | 0.302 | 0.349
RERF-LC-KJ | 0.86 | 0.902 | 0.772 | 0.407 | 0.467 | 0.699 | 0.604 | 0.585 | 0.397 | 0.433 | 1.01 | 0.86 | 0.84 | 0.668 | 0.582 | 0.947 | 0.934 | 0.995 | 0.91 | 0.842
A-427 | 0.669 | 0.637 | 0.694 | 0.4 | 0.369 | 0.59 | 0.461 | 0.47 | 0.375 | 0.419 | 0.93 | 0.856 | 0.844 | 0.615 | 0.48 | 0.765 | 0.704 | 0.724 | 0.721 | 0.732
NCI-H441 | 0.523 | 0.412 | 0.43 | 0.217 | 0.213 | 0.915 | 0.725 | 0.716 | 0.44 | 0.344 | 0.923 | 0.64 | 0.554 | 0.496 | 0.271 | 0.527 | 0.503 | 0.586 | 0.57 | 0.621
NCI-H1792 | 0.498 | 0.407 | 0.267 | 0.174 | 0.0814 | 0.742 | 0.72 | 0.654 | 0.391 | 0.266 | 1.15 | 0.971 | 0.921 | 0.601 | 0.294 | 0.432 | 0.447 | 0.404 | 0.517 | 0.321
SW 1573 | 0.529 | 0.438 | 0.482 | 0.144 | 0.163 | 0.702 | 0.579 | 0.5 | 0.199 | 0.167 | 0.989 | 0.712 | 0.66 | 0.572 | 0.317 | 0.391 | 0.493 | 0.425 | 0.468 | 0.467
